Source: patent US9458093B2, “Compositions for the treatment of hypertension and/or fibrosis” (Vectus Biosystems Limited, priority 2013, dated 2016)

Tests used:
[1] = test system: A10 embryonic vascular smooth muscle cells; assay: xCELLigence cellular impedance (cell index), A10 vascular smooth muscle cells; format: cell-based; details: 62.5, 125 and 250 μM, FIG. 3
Method: The xCELLigence SP system (Roche) was used to measure changes in cellular impedance (cell index) following the treatment of A10 embryonic vascular smooth muscle cells (ATCC, CRL-1476) with VB0004. This in vitro assay was correlated with blood pressure data obtained in the animal model described below in Example 3, so that it can be used for faster screening of larger number of compounds. […]
Briefly, 50 μl of cell culture medium (DMEM low glucose supplemented with 10% fetal bovine serum at 37° C.) was added to each well of an E-Plate 96 (Roche), and the background impedance in each well was measured. […] Cell index was monitored for each well of the E-Plate 96 in RTCA SP Station within the cell culture incubator. After overnight incubation for 16-20 hours at 5% CO2 and 95% humidity, 100 μl of VB0004 solution (VB0004 was prepared in DMSO and diluted with cell culture medium to a final DMSO concentration of 0.25%) was added to the appropriate wells of the E-Plate 96 and cell index values were measured immediately following compound treatment every 20 seconds for 3 hours. […]

[2] = test system: bovine aortic endothelial cells; assay: xCELLigence cellular impedance (cell index), bovine aortic endothelial cells; format: cell-based; details: 62.5, 125 and 250 μM, FIG. 5
Method: Briefly, 50 μl of cell culture medium (DMEM low glucose supplemented with 10% fetal bovine serum at 37° C.) was added to each well of an E-Plate 96 (Roche), and the background impedance in each well was measured. 50 μl of A-10 cell suspension (10,000 cells/well) was then added to the appropriate wells of the E-Plate 96. Cell index was monitored for each well of the E-Plate 96 in RTCA SP Station within the cell culture incubator. After overnight incubation for 16-20 hours at 5% CO2 and 95% humidity, 100 μl of VB0004 solution (VB0004 was prepared in DMSO and diluted with cell culture medium to a final DMSO concentration of 0.25%) was added to the appropriate wells of the E-Plate 96 and cell index values were measured immediately following compound treatment every 20 seconds for 3 hours. Cell index value is baseline-corrected by subtracting the cell index of vehicle-treated cells and normalized by dividing by the cell index at the time point immediately before compound addition. Baseline normalized cell index as a function of time is plotted using Roche RTCA software.
The xCELLigence SP system (Roche) was also used to measure changes in cellular impedance (cell index) following the treatment of bovine aortic endothelial cells (European Collection of Cell Cultures) with test compound. […]

[3] = test system: SHR on 2.2% salt diet; assay: Oral study: fibrosis quantitation in kidney (Masson's trichrome) of SHR on 2.2% salt diet; format: in vivo, rat
Text: (§1) Fourteen week old SHR (on a 2.2% salt diet; Glen Forrest Stockfeeders) were randomly assigned to zero time control, VB0004 treatment (10, 100, 500, 1,000 and 2,500 pmol/kg/min) in the drinking solution or control drinking solution (5% ethanol in deionised distilled water (n=5 each group). The rats assigned to zero time control group were anaesthetised and had their heart and kidneys harvested while rats assigned to control and VB0004 treatment were weighed twice weekly and had their drinking solution intake monitored to allow adjustment of the VB0004 concentration in the drinking solution to maintain a constant dose over the 4, 6 or 8 weeks study periods. Blood pressure was measured twice weekly by tail cuff plethysmography (PowerLab, ADInstruments, Castle Hill, NSW, Australia). After 4, 6 or 8 weeks rats were anaesthetised, and their heart and kidneys harvested for quantitation of fibrosis. To quantitate fibrosis, tissue slices ≦3 mm thick were fixed in 10% buffered formalin for 24 hours, processed and embedded in paraffin. […] A minimum of 20 random fields at magnification ×20 from transverse sections (5 at each of 2 levels) were digitized and the degree of fibrosis determined as a percent of field area of each digitized image using Image-Pro Plus V.5 (Media Cybernetics, Bethesda, Md., USA) then averaged to determine the level of fibrosis for tissue for each rat.

[4] = test system: SHR on 2.2% salt diet; assay: Oral study: systolic blood pressure by tail cuff plethysmography in SHR on 2.2% salt diet; format: in vivo, rat
Text: Fourteen week old SHR (on a 2.2% salt diet; Glen Forrest Stockfeeders) were randomly assigned to zero time control, VB0004 treatment (10, 100, 500, 1,000 and 2,500 pmol/kg/min) in the drinking solution or control drinking solution (5% ethanol in deionised distilled water (n=5 each group). The rats assigned to zero time control group were anaesthetised and had their heart and kidneys harvested while rats assigned to control and VB0004 treatment were weighed twice weekly and had their drinking solution intake monitored to allow adjustment of the VB0004 concentration in the drinking solution to maintain a constant dose over the 4, 6 or 8 weeks study periods. Blood pressure was measured twice weekly by tail cuff plethysmography (PowerLab, ADInstruments, Castle Hill, NSW, Australia). After 4, 6 or 8 weeks rats were anaesthetised, and their heart and kidneys harvested for quantitation of fibrosis.

[5] = test system: SHR on 2.2% salt diet; assay: Intravenous infusion study: systolic blood pressure by tail cuff plethysmography in SHR on 2.2% salt diet; format: in vivo, rat; details: intravenous 10 and 20 pmol/kg/min, 4 weeks, FIG. 6
Method: Fourteen week old SHR (on a 2.2% salt diet; Glen Forrest Stockfeeders) were randomly assigned to zero time control, VB0004 infusion (10 and 20 pmol/kg/min) or vehicle (20% DMSO in normal saline, Baxter Healthcare, Sydney NSW Australia) infusion (n=5 each group). […] Blood pressure was measured twice weekly by tail cuff plethysmography (PowerLab, ADInstruments, Castle Hill, NSW, Australia). After 4 weeks rats were again anaesthetised, their heart and kidneys harvested for quantitation of fibrosis.

[6] = test system: SHR on 2.2% salt diet; assay: Oral study: fibrosis quantitation in heart (Masson's trichrome) of SHR on 2.2% salt diet; format: in vivo, rat
Text: as §1

melting point: 167.2 to 168.9 °C
SMILES: NC(=O)CCc1cc(-c2ccccc2)ccc1-c1cccc(O)c1 [VB0004, 2′-[3-Hydroxy-(1,1′:4′,1″-terphenyl)]propanamide]
impedance response (cell index) [1]: negative impedance response | impedance response (cell index) [2]: negative impedance response | fibrosis in the kidney ([3]; 18 week old SHR, 10 to 500 pmol/kg/min orally, 4 weeks, vs 14 and 18 week controls, FIG. 10): decreased compared with fibrosis in 14 and 18 week controls | fibrous tissue in kidney sections (micrographs, Masson's trichrome) ([3]; SHR, 500 pmol/kg/min for four weeks, FIG. 12): virtually no fibrous tissue is present | mean systolic blood pressure over time ([4]; 2,500 pmol/kg/min orally, up to 8 weeks, FIG. 8): continued to decrease with time | mean systolic blood pressure compared to controls ([4]; 10, 100 and 500 pmol/kg/min orally, 4 weeks, FIG. 4): decreased blood pressure compared to controls | mean systolic blood pressure compared with controls, dose dependence ([4]; 10 to 2,500 pmol/kg/min orally, 4 weeks, FIG. 7): decreased blood pressure with increased dose compared with controls | decrease in SBP compared with vehicle control [5]: 20 mmHg | fibrosis in the heart ([6]; 18 week old SHR, 10 to 500 pmol/kg/min orally, 4 weeks, vs 14 and 18 week controls, FIG. 9): decreased compared with fibrosis in 14 and 18 week controls | fibrous tissue in heart sections (micrographs, Masson's trichrome) ([6]; SHR, 500 pmol/kg/min for four weeks, FIG. 11): virtually no fibrous tissue is present
